In US7625912B2, “Mitotic kinesin inhibitors” (Merck & Co. Inc, priority 2003, dated 2009):
pIC50: −log10 of the molar value.

Target: T1, human KSP motor domain (KSP(367H)) (Homo sapiens, UniProt P52732)
T1 construct: were used to amplify the motor domain and the neck linker region; made in house; host or cells: E. coli BL21 (DE3), pRSETa vector
T1 sequence (P52732 18-359 limits assumed): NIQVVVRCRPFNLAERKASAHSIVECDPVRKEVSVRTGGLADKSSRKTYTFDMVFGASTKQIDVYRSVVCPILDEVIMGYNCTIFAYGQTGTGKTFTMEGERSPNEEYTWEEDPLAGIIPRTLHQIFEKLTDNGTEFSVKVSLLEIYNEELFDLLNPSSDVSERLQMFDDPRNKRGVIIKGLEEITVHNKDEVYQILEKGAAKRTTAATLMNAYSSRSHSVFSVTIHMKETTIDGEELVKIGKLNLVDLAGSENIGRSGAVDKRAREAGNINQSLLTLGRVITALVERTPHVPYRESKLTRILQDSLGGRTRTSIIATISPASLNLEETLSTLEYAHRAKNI
Experiment: Kinesin ATPase in vitro assay
Assay type: biochemical
Details: microtubules, 1 mM ATP, 23° C.; free phosphate by quinaldine red/ammonium molybdate, absorbance 540 nm
Text: I. Kinesin ATPase In Vitro Assay
Cloning and Expression of Human Poly-Histidine Tagged KSP Motor Domain (KSP(367H))
Plasmids for the expression of the human KSP motor domain construct were cloned by PCR using a pBluescript full length human KSP construct (Blangy et al., Cell, vol. 83, pp 1159-1169, 1995) as a template. The N-terminal primer 5′-[…] (SEQ.ID.NO.: 1) and the C-terminal primer 5′-[…] […] (SEQ.ID.NO.: 2) were used to amplify the motor domain and the neck linker region. The PCR products were digested with AseI and XhoI, ligated into the NdeL/XhoI digestion product of pRSETa (Invitrogen) and transformed into E. coli BL21 (DE3).
Cells were grown at 37° C. to an OD600 of 0.5. […]
The kinesin motor domain is incubated with microtubules, 1 mM ATP (1:1 MgCl2: Na-ATP), and compound at 23° C. in buffer containing 80 mM K-HEPES (pH 7.0), 1 mM EGTA, 1 mM DTT, 1 mM MgCl2, and 50 mM KCl. […] Free phosphate from the ATP hydrolysis reaction is measured via a quinaldine red/ammonium molybdate assay by adding 150 μl of quench C buffer containing a 2:1 ratio of quench A:quench B. Quench A contains 0.1 mg/ml quinaldine red and 0.14% polyvinyl alcohol; quench B contains 12.3 mM ammonium molybdate tetrahydrate in 1.15 M sulfuric acid. The reaction is incubated for 10 minutes at 23° C., and the absorbance of the phospho-molybdate complex is measured at 540 nm.

pIC50: ≥ 4.30
Structure (SMILES): Cc1ccc(-n2c(-c3ccccc3Br)nccc2=O)cc1F [1-4, 2-(2-bromophenyl)-3-(3-fluoro-4-methylphenyl)pyrimidin-4(3H)-one]
